The values that follow are results of earlier work, collected in US20080131492A1, “Dosage forms for movement disorder treatment” (Spherics, Inc., priority 2006, published 2008).

The conditions of this data set: doses of 400 mg per day.

Structures are written as SMILES.

`C[C@@](Cc1ccc(O)c(O)c1)(NN)C(=O)O` [carbidopa]: the adverse effects entry is “fails to elicit adverse effects”.
